Measured values as given in patent publication US10765114B2, “4-amino-6-(pyridyl and 2-substitutedphenyl)-picolinates and 6-amino-2-(pyridyl and 2-substitutedphenyl)-pyrimidine-4-carboxylates and their use as herbicides” (Dow AgroSciences LLC, priority 2013, dated 2020).

The compounds below were run on Key Grass and Sedge Weeds as well as Grass Crops (assay: Post-Emergent Test II (Table 6)). Settings: post-emergence, 336 h, CYPSS, 70 g ai/ha, 14 days after application, read-out: Visual Growth Reduction (%) 14 Days After Application CYPSS.
Type: in vivo
How it was run: (§1)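 Visual injury ratings (0 = no injury, 100 = complete kill) taken 14 days after treatment, relative to untreated controls. Compounds, in an acetone/DMSO aqueous carrier with crop oil and surfactant, were applied by track sprayer at 187 L/ha, in a twofold dilution series from the top rate, to plants at the first to second true-leaf stage.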

SMILES	pest or weed control at 70 g/ha
Cc1c(-c2nc(C(=O)O)c(Cl)c(N)c2F)ccc(C(F)(F)F)c1F [Compound 55]	0 to 29%

Same assay, conditions: post-emergence, 336 h, CYPSS, 140 g ai/ha, 14 days after application, read-out: Visual Growth Reduction (%) 14 Days After Application CYPSS

SMILES	pest or weed control at 140 g/ha
Cc1c(-c2nc(C(=O)O)c(Cl)c(N)c2F)ccc(C(F)(F)F)c1F [Compound 55]	0 to 29%

Same assay, conditions: post-emergence, 336 h, DIGSA: crabgrass (Digitaria sanguinalis), 70 g ai/ha, 14 days after application, read-out: Visual Growth Reduction (%) 14 Days After Application DIGSA

SMILES	pest or weed control at 70 g/ha
Cc1c(-c2nc(C(=O)O)c(Cl)c(N)c2F)ccc(C(F)(F)F)c1F [Compound 55]	0 to 29%

Same assay, conditions: post-emergence, 336 h, DIGSA: crabgrass (Digitaria sanguinalis), 140 g ai/ha, 14 days after application, read-out: Visual Growth Reduction (%) 14 Days After Application DIGSA

SMILES	pest or weed control at 140 g/ha
Cc1c(-c2nc(C(=O)O)c(Cl)c(N)c2F)ccc(C(F)(F)F)c1F [Compound 55]	0 to 29%

Same assay, conditions: post-emergence, 336 h, ECHSS, 70 g ai/ha, 14 days after application, read-out: Visual Growth Reduction (%) 14 Days After Application ECHSS

SMILES	pest or weed control at 70 g/ha
Cc1c(-c2nc(C(=O)O)c(Cl)c(N)c2F)ccc(C(F)(F)F)c1F [Compound 55]	0 to 29%

Same assay, conditions: post-emergence, 336 h, ECHSS, 140 g ai/ha, 14 days after application, read-out: Visual Growth Reduction (%) 14 Days After Application ECHSS

SMILES	pest or weed control at 140 g/ha
Cc1c(-c2nc(C(=O)O)c(Cl)c(N)c2F)ccc(C(F)(F)F)c1F [Compound 55]	0 to 29%

Same assay, conditions: post-emergence, 336 h, ORYSS (crop), 70 g ai/ha, 14 days after application, read-out: Visual Growth Reduction (%) 14 Days After Application ORYSS

SMILES	pest or weed control at 70 g/ha
Cc1c(-c2nc(C(=O)O)c(Cl)c(N)c2F)ccc(C(F)(F)F)c1F [Compound 55]	0 to 29%

Same assay, conditions: post-emergence, 336 h, ORYSS (crop), 140 g ai/ha, 14 days after application, read-out: Visual Growth Reduction (%) 14 Days After Application ORYSS

SMILES	pest or weed control at 140 g/ha
Cc1c(-c2nc(C(=O)O)c(Cl)c(N)c2F)ccc(C(F)(F)F)c1F [Compound 55]	0 to 29%

Same assay, conditions: post-emergence, 336 h, SORVU: grain sorghum (Sorghum vulgare), 70 g ai/ha, 14 days after application, read-out: Visual Growth Reduction (%) 14 Days After Application SORVU

SMILES	pest or weed control at 70 g/ha
Cc1c(-c2nc(C(=O)O)c(Cl)c(N)c2F)ccc(C(F)(F)F)c1F [Compound 55]	0 to 29%

Same assay, conditions: post-emergence, 336 h, SORVU: grain sorghum (Sorghum vulgare), 140 g ai/ha, 14 days after application, read-out: Visual Growth Reduction (%) 14 Days After Application SORVU

SMILES	pest or weed control at 140 g/ha
Cc1c(-c2nc(C(=O)O)c(Cl)c(N)c2F)ccc(C(F)(F)F)c1F [Compound 55]	0 to 29%

Same assay, conditions: post-emergence, 336 h, TRZSS (crop), 70 g ai/ha, 14 days after application, read-out: Visual Growth Reduction (%) 14 Days After Application TRZSS

SMILES	pest or weed control at 70 g/ha
Cc1c(-c2nc(C(=O)O)c(Cl)c(N)c2F)ccc(C(F)(F)F)c1F [Compound 55]	0 to 29%

Same assay, conditions: post-emergence, 336 h, TRZSS (crop), 140 g ai/ha, 14 days after application, read-out: Visual Growth Reduction (%) 14 Days After Application TRZSS

SMILES	pest or weed control at 140 g/ha
Cc1c(-c2nc(C(=O)O)c(Cl)c(N)c2F)ccc(C(F)(F)F)c1F [Compound 55]	0 to 29%

Same assay, conditions: post-emergence, 336 h, ZEAMX: maize, corn (Zea mays), 70 g ai/ha, 14 days after application, read-out: Visual Growth Reduction (%) 14 Days After Application ZEAMX

SMILES	pest or weed control at 70 g/ha
Cc1c(-c2nc(C(=O)O)c(Cl)c(N)c2F)ccc(C(F)(F)F)c1F [Compound 55]	45 to 59%

Same assay, conditions: post-emergence, 336 h, ZEAMX: maize, corn (Zea mays), 140 g ai/ha, 14 days after application, read-out: Visual Growth Reduction (%) 14 Days After Application ZEAMX

SMILES	pest or weed control at 140 g/ha
Cc1c(-c2nc(C(=O)O)c(Cl)c(N)c2F)ccc(C(F)(F)F)c1F [Compound 55]	45 to 59%

What follows are compounds tested on Key Broadleaf Weed and Crop Species (assay: Post-Emergent Test II (Table 5)). Settings: Abutilon theophrasti, post-emergence, 336 h, ABUTH: velvetleaf (Abutilon theophrasti), application rate 70 (kg ai/ha; footnote: g ai/ha), read-out: Visual Growth Reduction (%) 14 Days After Application ABUTH.
Type: in vivo
How it was run: as §1

SMILES	pest or weed control at 70 g/ha
Cc1c(-c2nc(C(=O)O)c(Cl)c(N)c2F)ccc(C(F)(F)F)c1F [Compound 55]	45 to 59%

Same assay, conditions: Abutilon theophrasti, post-emergence, 336 h, ABUTH: velvetleaf (Abutilon theophrasti), application rate 140 (kg ai/ha; footnote: g ai/ha), read-out: Visual Growth Reduction (%) 14 Days After Application ABUTH

SMILES	pest or weed control at 140 g/ha
Cc1c(-c2nc(C(=O)O)c(Cl)c(N)c2F)ccc(C(F)(F)F)c1F [Compound 55]	45 to 59%

Same assay, conditions: Amaranthus retroflexus, post-emergence, 336 h, AMARE: redroot pigweed (Amaranthus retroflexus), application rate 70 (kg ai/ha; footnote: g ai/ha), read-out: Visual Growth Reduction (%) 14 Days After Application AMARE

SMILES	pest or weed control at 70 g/ha
Cc1c(-c2nc(C(=O)O)c(Cl)c(N)c2F)ccc(C(F)(F)F)c1F [Compound 55]	0 to 29%

Same assay, conditions: Amaranthus retroflexus, post-emergence, 336 h, AMARE: redroot pigweed (Amaranthus retroflexus), application rate 140 (kg ai/ha; footnote: g ai/ha), read-out: Visual Growth Reduction (%) 14 Days After Application AMARE

SMILES	pest or weed control at 140 g/ha
Cc1c(-c2nc(C(=O)O)c(Cl)c(N)c2F)ccc(C(F)(F)F)c1F [Compound 55]	0 to 29%

Same assay, conditions: Brassica napus, post-emergence, 336 h, BRSSS: oilseed rape, canola (Brassica napus), application rate 70 (kg ai/ha; footnote: g ai/ha), read-out: Visual Growth Reduction (%) 14 Days After Application BRSSS

SMILES	pest or weed control at 70 g/ha
Cc1c(-c2nc(C(=O)O)c(Cl)c(N)c2F)ccc(C(F)(F)F)c1F [Compound 55]	30 to 44%

Same assay, conditions: Brassica napus, post-emergence, 336 h, BRSSS: oilseed rape, canola (Brassica napus), application rate 140 (kg ai/ha; footnote: g ai/ha), read-out: Visual Growth Reduction (%) 14 Days After Application BRSSS

SMILES	pest or weed control at 140 g/ha
Cc1c(-c2nc(C(=O)O)c(Cl)c(N)c2F)ccc(C(F)(F)F)c1F [Compound 55]	45 to 59%

Same assay, conditions: Chenopodium album, post-emergence, 336 h, CHEAL: lambsquarters (Chenopodium album), application rate 70 (kg ai/ha; footnote: g ai/ha), read-out: Visual Growth Reduction (%) 14 Days After Application CHEAL

SMILES	pest or weed control at 70 g/ha
Cc1c(-c2nc(C(=O)O)c(Cl)c(N)c2F)ccc(C(F)(F)F)c1F [Compound 55]	60 to 74%

Same assay, conditions: Chenopodium album, post-emergence, 336 h, CHEAL: lambsquarters (Chenopodium album), application rate 140 (kg ai/ha; footnote: g ai/ha), read-out: Visual Growth Reduction (%) 14 Days After Application CHEAL

SMILES	pest or weed control at 140 g/ha
Cc1c(-c2nc(C(=O)O)c(Cl)c(N)c2F)ccc(C(F)(F)F)c1F [Compound 55]	85 to 94%

Same assay, conditions: Euphorbia heterophylla, post-emergence, 336 h, EPHHL: wild poinsettia (Euphorbia heterophylla), application rate 70 (kg ai/ha; footnote: g ai/ha), read-out: Visual Growth Reduction (%) 14 Days After Application EPHHL

SMILES	pest or weed control at 70 g/ha
Cc1c(-c2nc(C(=O)O)c(Cl)c(N)c2F)ccc(C(F)(F)F)c1F [Compound 55]	0 to 29%

Same assay, conditions: Euphorbia heterophylla, post-emergence, 336 h, EPHHL: wild poinsettia (Euphorbia heterophylla), application rate 140 (kg ai/ha; footnote: g ai/ha), read-out: Visual Growth Reduction (%) 14 Days After Application EPHHL

SMILES	pest or weed control at 140 g/ha
Cc1c(-c2nc(C(=O)O)c(Cl)c(N)c2F)ccc(C(F)(F)F)c1F [Compound 55]	45 to 59%

Same assay, conditions: Helianthus annuus, post-emergence, 336 h, HELAN: sunflower (Helianthus annuus), application rate 70 (kg ai/ha; footnote: g ai/ha), read-out: Visual Growth Reduction (%) 14 Days After Application HELAN

SMILES	pest or weed control at 70 g/ha
Cc1c(-c2nc(C(=O)O)c(Cl)c(N)c2F)ccc(C(F)(F)F)c1F [Compound 55]	85 to 94%

Same assay, conditions: Helianthus annuus, post-emergence, 336 h, HELAN: sunflower (Helianthus annuus), application rate 140 (kg ai/ha; footnote: g ai/ha), read-out: Visual Growth Reduction (%) 14 Days After Application HELAN

SMILES	pest or weed control at 140 g/ha
Cc1c(-c2nc(C(=O)O)c(Cl)c(N)c2F)ccc(C(F)(F)F)c1F [Compound 55]	95 to 100%

Same assay, conditions: Viola tricolor, post-emergence, 336 h, VIOTR: wild pansy (Viola tricolor), application rate 70 (kg ai/ha; footnote: g ai/ha), read-out: Visual Growth Reduction (%) 14 Days After Application VIOTR

SMILES	pest or weed control at 70 g/ha
Cc1c(-c2nc(C(=O)O)c(Cl)c(N)c2F)ccc(C(F)(F)F)c1F [Compound 55]	0 to 29%

Same assay, conditions: Viola tricolor, post-emergence, 336 h, VIOTR: wild pansy (Viola tricolor), application rate 140 (kg ai/ha; footnote: g ai/ha), read-out: Visual Growth Reduction (%) 14 Days After Application VIOTR

SMILES	pest or weed control at 140 g/ha
Cc1c(-c2nc(C(=O)O)c(Cl)c(N)c2F)ccc(C(F)(F)F)c1F [Compound 55]	0 to 29%
